Target: ALK2 (Homo sapiens (Human), UniProt Q04771)
Assay: ALK2 inhibition, LanthaScreen Eu Kinase Binding Assay (ThermoFisher Scientific / Life Technologies)
Details: read-out: Measured Ki (IC50) Value for Compounds: IC50
Method: Biochemical assays to measure the inhibitory effects of the compounds were performed by ThermoFisher Scientific (Life Technologies). ALK2 inhibition was tested using LanthaScreen™ Eu Kinase Binding Assay screening protocol.

ALK2, sequence (Q04771 21-509): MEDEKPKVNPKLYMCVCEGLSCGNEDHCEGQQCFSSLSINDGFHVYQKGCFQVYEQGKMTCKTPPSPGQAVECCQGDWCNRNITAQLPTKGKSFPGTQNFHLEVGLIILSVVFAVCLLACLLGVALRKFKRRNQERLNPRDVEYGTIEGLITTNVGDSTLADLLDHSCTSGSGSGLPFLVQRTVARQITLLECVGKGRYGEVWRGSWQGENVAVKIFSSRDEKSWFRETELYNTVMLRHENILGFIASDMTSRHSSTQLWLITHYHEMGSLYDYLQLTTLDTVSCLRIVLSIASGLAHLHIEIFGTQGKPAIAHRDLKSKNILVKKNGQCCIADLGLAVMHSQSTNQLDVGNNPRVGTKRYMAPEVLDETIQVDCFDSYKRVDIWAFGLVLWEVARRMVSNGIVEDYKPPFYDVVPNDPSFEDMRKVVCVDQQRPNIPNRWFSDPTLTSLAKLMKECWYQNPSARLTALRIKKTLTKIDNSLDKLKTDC

Row | IC50 [nM] | Compound
1 | > 1000 | COc1cc(-n2cnc(Nc3nc(N4CCC[C@H]4C(N)=O)nc4[nH]nc(C)c34)c2)cc(OC)c1OC [Compound 401b, (S)-1-(3-methyl-4-((1-(3,4,5-trimethoxyphenyl)-1H-imidazol-4-yl)amino)-1H-pyrazolo[3,4-d]pyrimidin-6-yl)pyrrolidine-2-carboxamide]
2 | < 100 | COc1cc(-n2cnc(Nc3nc(N4CCC[C@H]4CO)c4c(C)nn(C5CCCCO5)c4n3)c2)cc(OC)c1OC (stereo partly drawn) [Compound 402b, ((2S)-1-(3-methyl-1-(tetrahydro-2H-pyran-2-yl)-6-((1-(3,4,5-trimethoxyphenyl)-1H-imidazol-4-yl)amino)-1H-pyrazolo[3,4-d]pyrimidin-4-yl)pyrrolidin-2-yl)methanol]
3 | < 100 | COc1cc(-n2cnc(Nc3nc(N4CCC[C@H]4CO)c4c(C)n[nH]c4n3)c2)cc(OC)c1OC [Compound 402c, (S)-(1-(3-methyl-6-((1-(3,4,5-trimethoxyphenyl)-1H-imidazol-4-yl)amino)-1H-pyrazolo[3,4-d]pyrimidin-4-yl)pyrrolidin-2-yl)methanol]
4 | < 100 | COc1cc(-n2cnc(Nc3nc(N4CCC[C@H]4C(N)=O)nc4sc(CN5CCCC5)cc34)c2)cc(OC)c1OC [Compound 403h, (S)-1-(6-(pyrrolidin-1-ylmethyl)-4-((1-(3,4,5-trimethoxyphenyl)-1H-imidazol-4-yl)amino)thieno[2,3-d]pyrimidin-2-yl)pyrrolidine-2-carboxamide]
5 | < 100 | COc1cc(-n2cnc(Nc3nc(N4CCC[C@H]4C(N)=O)nc4sc(CN5CCC(O)CC5)cc34)c2)cc(OC)c1OC [Compound 404b, (S)-1-(6-((4-hydroxypiperidin-1-yl)methyl)-4-((1-(3,4,5-trimethoxyphenyl)-1H-imidazol-4-yl)amino)thieno[2,3-d]pyrimidin-2-yl)pyrrolidine-2-carboxamide]
6 | < 100 | COc1cc(-n2cnc(Nc3nc(N4CCC[C@H]4C(N)=O)nc4sc(CN5CCN(C)CC5)cc34)c2)cc(OC)c1OC [Compound 405b, (S)-1-(6-((4-methylpiperazin-1-yl)methyl)-4-((1-(3,4,5-trimethoxyphenyl)-1H-imidazol-4-yl)amino)thieno[2,3-d]pyrimidin-2-yl)pyrrolidine-2-carboxamide]
7 | < 100 | COc1cc(-n2cnc(Nc3nc(N4CCC[C@H]4C(N)=O)nc4sc(CN5CCCCC5)cc34)c2)cc(OC)c1OC [Compound 406b, (S)-1-(6-(piperidin-1-ylmethyl)-4-((1-(3,4,5-trimethoxyphenyl)-1H-imidazol-4-yl)amino)thieno[2,3-d]pyrimidin-2-yl)pyrrolidine-2-carboxamide]
8 | < 100 | COc1cc(-n2cnc(Nc3nc(N4CCC[C@H]4C(N)=O)nc4sc(CN5CCOCC5)cc34)c2)cc(OC)c1OC [Compound 407b, (S)-1-(6-(morpholinomethyl)-4-((1-(3,4,5-trimethoxyphenyl)-1H-imidazol-4-yl)amino)thieno[2,3-d]pyrimidin-2-yl)pyrrolidine-2-carboxamide]
9 | < 100 | COc1cc(-n2cnc(Nc3nc(N4CCC[C@H]4C(N)=O)nc4sc(CN5CCN(c6ccccn6)CC5)cc34)c2)cc(OC)c1OC [Compound 408b, (S)-1-(6-((4-(pyridin-2-yl)piperazin-1-yl)methyl)-4-((1-(3,4,5-trimethoxyphenyl)-1H-imidazol-4-yl)amino)thieno[2,3-d]pyrimidin-2-yl)pyrrolidine-2-carboxamide]
10 | < 100 | COc1cc(-n2cnc(Nc3nc(N4CCCCC4)c4ccc(CN5CCCC5)cc4n3)c2)cc(OC)c1OC [Compound 409e, 4-(piperidin-1-yl)-7-(pyrrolidin-1-ylmethyl)-N-(1-(3,4,5-trimethoxyphenyl)-1H-imidazol-4-yl)quinazolin-2-amine]
11 | < 100 | COc1cc(-n2cnc(Nc3nc(N4CCC[C@H]4CO)nn4c(C(=O)N5CCCCC5)ccc34)c2)cc(OC)c1OC [Compound 410e, (S)-(2-(2-(hydroxymethyl)pyrrolidin-1-yl)-4-((1-(3,4,5-trimethoxyphenyl)-1H-imidazol-4-yl)amino)pyrrolo[2,1-f][1,2,4]triazin-7-yl)(piperidin-1-yl)methanone]
